Reference: PubChem BioAssay AID1963438 (Molecular Pharmacology Branch, DTP, NCI, 2024)
Several values for one entry are separate records, joined by “and”; a condition that tells them apart may be missing. Equal entries are not always repeated. Each block holds one molecule with its values, some of them ahead of it.

Test system: NCI-H510 multicellular tumor spheroid growth, % test/control
Assay: Anticancer human tumor NCI-H510 cell line growth inhibition [Asc];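 also: spheroids exposed to agents for 7 days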;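 as to viability, T/C: 100% = DMSO vehicle control wells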
Details: for viability, T/C: stronger effect = lower value
Protocol: Multicellular complex tumor spheroid response to apoptosis pathway targeting inhibitors Alrizomadlin, Pelcitoclax, and Dasminapant in combination with a variety of drugs and investigational agents in selected tumor cell lines
The MDM2 inhibitor alrizomadlin, the Bcl-2/Bcl-xL inhibitor pelcitoclax, and the IAPs inhibitor dasminapant were evaluated both individually and in combination with standard of care and investigational anticancer small molecules within a complex spheroid model of solid tumors. . Complex spheroids include a stromal component modeled by human endothelial cells (HUVEC) and fibroblasts modeled by human mesenchymal stem cells (MSCs). The concentration ranges selected for each drug and investigational agent were based upon clinically achievable concentrations if the clinical Cmax of the agent was known.
Compounds. The drugs and investigational agents: alrizomadlin (APG-115; NSC831270), pelcitoclax (APG-1252; NSC835773), dasminapant (APG-1387;NSC834197), TAK-243 (NSC785004), copanlisib (NSC809693), olaparib (NSC753686), talazoparib (NSC767125), cobimetinib (NSC 768068), eltanexor (KPT-8602, NSC 794443), abemaciclib (NSC 768073), sotorasib (NSC818433), adagrasib (NSC 831453), MRTX-1133 (NSC 836407), Iadademestat (ORY1001, NSC 806812), and RMC-4630 (NSC839698), were obtained from the NCI Developmental Therapeutics Program Chemical Repository. The FDA-approved anticancer drug set is available from the Developmental Therapeutics Program at https://dtp.cancer.gov/organization/dscb/obtaining/available plates.htm. […] The stock solutions were prepared in dimethyl sulfoxide (DMSO, Sigma-Aldrich, St. Louis, MO, cat. D2650) at 800-fold the tested concentration and stored at -70 degrees C prior to their use. All drugs and investigational agents were tested over a range starting from a high concentration at or near the clinical Cmax and decreasing in half-log increments. If the clinical Cmax for an agent had not been determined, the highest concentration tested was 10 microM.
The patient-derived cancer (PDC) cell lines include five colon adenocarcinomas: 186277-243-T-J2-PDC, 616215-338-R-J1-PDC, 439559-082-T-J2-PDC, 463943-066-T-J2-PDC, and 519858-162-T-J1-PDC; three pancreatic carcinomas: 323965-272-R-J2-PDC, 521955-158-R6-J3-PDC, and 521955-158-R2-J5-PDC; two uterine sarcomas: 327498-152-R-J2-PDC and 993429-296-R-J1-PDC; two rhabdomyosarcomas: 755483-174-R-J1-PDC and 772245-204-R-J1-PDC; two soft tissue sarcomas: 126254-015-R-J1-PDC and 494315-158-R-J1-PDC; two malignant fibrous histiocytomas: 317291-083-R-J1-PDC and 596521-263-R-J1-PDC; two breast carcinomas: 171881-019-R-J1-PDC and 885512-296-R-J2-PDC; and one ovarian carcinoma: 6556581-035-R-J-PDC were obtained from the NCI PDMR, (https://pdmr.cancer.gov). The established cell lines HSSY-2 synovial sarcoma (RRID:CVCL 8719), SYO-1 synovial sarcoma (RRID:CVCL_7146), MPNST malignant peripheral neural sheath tumor were obtained from the Sloan Kettering Institute. The following established cell lines were purchased from the American Type Culture Collection (ATCC, Manassas, VA), Sor the received from the NCI repository:, PANC-1 pancreatic carcinoma (CRL-1469, RRID:CVCL_0480), OVCAR-5 ovarian carcinoma (RRID:CVCL_1628), OVCAR-8 ovarian carcinoma (RRID:CVCL_1629), , MCF-7 breast carcinoma (CRL-12584, RRID:CVCL_0031), MDA-MB-231 breast carcinoma (CRL-12532, RRID:CVCL_0062), NCI-H1876 small cell lung carcinoma (CRL-5902, RRID:CVCL_1503), NCI-H510A small cell lung carcinoma (HTB-184, RRID:CVCL_1565), NCI-H1417 (CRL-5869, RRID:CVCL_1469), and NCI-H196 small cell lung carcinoma (CRL-5823, RRID:CVCL_1509). Dr. Peter Houghton (Greehey Children's Cancer Research Institute, University of Texas Health Science Center, San Antonio, TX) provided Rh-18 rhabdomyosarcoma (RRID:CVCL_1659). Pooled donor human umbilical vein endothelial cells (HUVEC, Lonza, cat. CC-2519) and human mesenchymal stem cells (hMSC, Lonza, cat. PT-2501) were purchased from Lonza (Walkersville, MD).
Cell Culture. […]

[1] = compound alone, run of 10/11/2022

- IC50 (curve of compound): > 10 µM
Structure (SMILES): C#Cc1c(F)ccc2cc(O)cc(-c3ncc4c(N5CC6CCC(C5)N6)nc(OCC56CCCN5CC(F)C6)nc4c3F)c12 (configuration not stated)
- viability, T/C (compound 0.0316 µM): 111% and 93.4% and 94.4%
- viability, T/C (compound 0.1 µM): 104% and 103% and 112%
- viability, T/C (compound 0.316 µM): 99.3% and 99.1% and 92.8%
- viability, T/C (compound 1 µM): 94.8% and 105% and 84.2%
- viability, T/C (compound 3.16 µM): 106% and 112% and 123%
- viability, T/C (compound 10 µM): 99.8% and 88.4% and 92.8%

- IC50 (curve of compound): 1.34 µM and 1.42 µM and 1.99 µM
Structure (SMILES): C=C(F)C(=O)N1CCN(c2nc(OCC3CCCN3C)nc3c2CCN(c2cccc4cccc(Cl)c24)C3)CC1CC#N (configuration not stated)
- viability, T/C (compound 0.0316 µM): 109% and 85.9% and 108%
- viability, T/C (compound 0.1 µM): 87.2% and 84.2% and 92%
- viability, T/C (compound 0.316 µM): 72.8% and 84.8% and 97.8%
- viability, T/C (compound 1 µM): 67.5% and 68.6% and 102%
- viability, T/C (compound 3.16 µM): 1.87% and 8.13% and 16.5%
- viability, T/C (compound 10 µM): 0.2% and 0.21% and 0.25%

- IC50 (curve of compound): > 10 µM
Structure (SMILES): C=CC(=O)N1CCN(c2nc(=O)n(-c3c(C)ccnc3C(C)C)c3nc(-c4c(O)cccc4F)c(F)cc23)C(C)C1 (configuration not stated)
- viability, T/C (compound 0.0316 µM): 101% and 89.6% and 100%
- viability, T/C (compound 0.1 µM): 100% and 95.4% and 104%
- viability, T/C (compound 0.316 µM): 105% and 90.3% and 98.7%
- viability, T/C (compound 1 µM): 94.5% and 82.8% and 106%
- viability, T/C (compound 3.16 µM): 108% (2×) and 100%
- viability, T/C (compound 10 µM): 96.6% and 75.9% and 110%

- IC50 [1]: > 3 µM
- IC50 (curve of compound): > 3 µM
Structure (SMILES): CCN1C(C(=O)NC23CCC(C(=O)O)(CC2)CC3)C(c2cccc(Cl)c2F)C2(C(=O)Nc3cc(Cl)ccc32)C12CCCCC2 (configuration not stated)
- viability, T/C (compound 0.00949 µM): 103% and 92.8%

- IC50 (curve of compound): > 1 µM
Structure (SMILES): CCN1CCN(Cc2ccc(Nc3ncc(F)c(-c4cc(F)c5nc(C)n(C(C)C)c5c4)n3)nc2)CC1
- viability, T/C (compound 0.00316 µM): 99.7% and 83.9% and 97.2%
- viability, T/C (compound 0.01 µM): 95.4% and 91.7% and 83.9%
- viability, T/C (compound 0.0316 µM): 104% and 102% and 97.5%
- viability, T/C (compound 0.1 µM): 93.1% and 78.6% and 112%
- viability, T/C (compound 0.316 µM): 99.7% and 82.1% and 106%
- viability, T/C (compound 1 µM): 76.2% and 98% and 106%

- IC50 (compound alone, run of 10/24/2022): > 1 µM
- IC50 (compound alone, run of 11/15/2022): > 1 µM
- IC50 (curve of compound): > 1 µM
Structure (SMILES): CNC(C)C(=O)NC1CN(S(=O)(=O)c2cccc(S(=O)(=O)N3CCC4CCC(C(=O)NC(c5ccccc5)c5ccccc5)N4C(=O)C(NC(=O)C(C)NC)C3)c2)CCC2CCC(C(=O)NC(c3ccccc3)c3ccccc3)N2C1=O (configuration not stated)
- viability, T/C (compound 0.00316 µM): 103% and 100% and 104%
- viability, T/C (compound 0.01 µM): 106% [middle of 14 runs]
- viability, T/C (compound 0.0316 µM): 102% [middle of 14 runs]
- viability, T/C (compound 0.1 µM): 103% [middle of 14 runs]

- IC50 (curve of compound): > 1 µM
Structure (SMILES): COc1c(OCCCN2CCOCC2)ccc2c3n(c(=NC(=O)c4cnc(N)nc4)nc12)CCN3
- viability, T/C (compound 0.00316 µM): 114% and 91.5% and 87.9%
- viability, T/C (compound 0.01 µM): 97.9% and 112% and 97.6%
- viability, T/C (compound 0.0316 µM): 93.2% and 99.9% and 112%
- viability, T/C (compound 0.1 µM): 93.2% and 52.7% and 108%
- viability, T/C (compound 0.316 µM): 110% and 89.6% and 115%
- viability, T/C (compound 1 µM): 81.5% and 92.5% and 114%

- IC50 [1]: > 10 µM
Structure (SMILES): Cc1c(S(C)(=O)=O)c(-c2cc(F)cc(N3CCN(c4ccc(NS(=O)(=O)c5ccc(NC(CCN6CCC(C(=O)OCCCP(=O)(O)O)CC6)CSc6ccccc6)c(S(=O)(=O)C(F)(F)F)c5)cc4)CC3)c2)c(-c2ccc(Cl)cc2)n1C(C)C (configuration not stated)
- viability, T/C (compound 1 µM): 95.2% [middle of 14 runs]

- IC50 (curve of compound): > 3 µM
Structure (SMILES): Cc1nc(N2CCC3(CC2)COC(C)C3N)c(CO)nc1Sc1ccnc(N)c1Cl (configuration not stated)
- viability, T/C (compound 0.00949 µM): 103% and 93.2% and 86.2%
- viability, T/C (compound 0.03 µM): 101% and 121% and 91%
- viability, T/C (compound 0.0949 µM): 103% and 109% and 98.7%
- viability, T/C (compound 0.3 µM): 99% and 118% and 99.2%
- viability, T/C (compound 0.949 µM): 96.9% and 107% and 96.8%
- viability, T/C (compound 3 µM): 100% and 106% and 80.6%

Structure (SMILES): Cn1ncnc1[C@H]1c2n[nH]c(=O)c3cc(F)cc(c23)N[C@@H]1c1ccc(F)cc1
- viability, T/C (compound 0.000316 µM): 106% and 114% (2×)
- viability, T/C (compound 0.001 µM): 98.2% and 93.5% and 70.4%
- viability, T/C (compound 0.00316 µM): 80.9% and 92.1% and 86.5%
- viability, T/C (compound 0.01 µM): 23.2% and 96.1% and 24.8%
- viability, T/C (compound 0.0316 µM): 14.6% and 83.9% and 22.1%
- viability, T/C (compound 0.1 µM): 12.7% and 99.4% and 18.4%

- IC50 (curve of compound): 0.154 µM and 0.0817 µM and > 0.3 µM
Structure (SMILES): NC(=O)C(=Cn1cnc(-c2cc(C(F)(F)F)cc(C(F)(F)F)c2)n1)c1cncnc1
- viability, T/C (compound 0.000949 µM): 91.3% and 79.1% and 81.8%
- viability, T/C (compound 0.003 µM): 95.1% and 92.5% and 90.3%
- viability, T/C (compound 0.00949 µM): 97.5% and 68.2% and 97.9%
- viability, T/C (compound 0.03 µM): 87.7% and 81.1% and 98%
- viability, T/C (compound 0.0949 µM): 76% and 44% and 86.5%
- viability, T/C (compound 0.3 µM): 14.6% and 47% and 69.7%

- IC50 (curve of compound): > 0.1 µM
Structure (SMILES): NC1CCC(NC2CC2c2ccccc2)CC1 (configuration not stated)
- viability, T/C (compound 0.000316 µM): 67.7% and 77.1% and 95.6%
- viability, T/C (compound 0.001 µM): 69.7% and 75.9% and 98.6%
- viability, T/C (compound 0.00316 µM): 79.1% and 83% and 96.4%
- viability, T/C (compound 0.01 µM): 69.3% and 84.8% and 101%
- viability, T/C (compound 0.0316 µM): 89.1% and 83.1% and 91.1%
- viability, T/C (compound 0.1 µM): 65% and 77.7% and 93%

- IC50 (curve of compound): 1.3 µM and 2.57 µM and > 10 µM
Structure (SMILES): O=C(c1cc(Cc2n[nH]c(=O)c3ccccc23)ccc1F)N1CCN(C(=O)C2CC2)CC1
- viability, T/C (compound 0.0316 µM): 93% and 95.9% and 99.4%
- viability, T/C (compound 0.1 µM): 101% and 80.6% and 86.1%
- viability, T/C (compound 0.316 µM): 69.5% and 59% and 83.9%
- viability, T/C (compound 1 µM): 60% and 90.4% and 76.8%
- viability, T/C (compound 3.16 µM): 29% and 43.1% and 88%

- IC50 (curve of compound): > 1 µM
Structure (SMILES): O=C(c1ccc(F)c(F)c1Nc1ccc(I)cc1F)N1CC(O)([C@@H]2CCCCN2)C1
- viability, T/C (compound 0.00316 µM): 80.5% and 85.3% and 98%
- viability, T/C (compound 0.01 µM): 119% and 91% and 90.4%
- viability, T/C (compound 0.0316 µM): 95.7% and 106% and 86.9%
- viability, T/C (compound 0.1 µM): 97.4% and 102% and 86.8%
- viability, T/C (compound 0.316 µM): 110% and 89% and 87.3%
- viability, T/C (compound 1 µM): 72.5% and 86% and 83.7%
